The results in this text go back to US20260092071A1, “COMPOUNDS AND COMPOSITIONS AS SMARCA2/4 DEGRADERS AND USES THEREOF” (REGENTS OF THE UNIVERSITY OF MICHIGAN, priority 2022, published 2026).

Read-outs that look alike come from different tables or passages of the source.

In experiment [1] the target is SMARCA4 (Homo sapiens, UniProt P51532). Briefly: HiBiT assay for protein degradation, Hela SMARCA4-HiBiT cells (A series). In kind it is cell-based. Details: fuse HiBiT to the carboxy terminus of SMARCA2 (Promega CS302365) or SMARCA4 (Promega CS3023225); host or cells: HeLa (CRISPR/Cas9 HiBiT knock-in). The note with it: for DC50: read-out: SMARC A4 Hela HiBit DC50. An outline of the steps:
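SMARCA4 degradation was measured in HeLa cells in which HiBiT had been knocked into the SMARCA4 carboxy terminus via CRISPR/Cas9 (Promega CS3023225). Cells were maintained in DMEM with FBS and penicillin-streptomycin. At the end of treatment, SMARCA4 levels were read by lytic HiBiT luminescence (Nano-Glo®, Promega N3050), and data were analyzed with GraphPad Prism.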

In experiment [2] the target is SMARCA2 (Homo sapiens, UniProt P51531). Briefly: HiBiT assay for protein degradation, Hela SMARCA2-HiBiT cells (A series).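 As to SMARC A2 Hela HiBit Dmax (%): 24 h compound treatment.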 On the set-up: Hela cells were genetically modified via CRISPR/Cas9 to fuse HiBiT to the carboxy terminus of SMARCA2; host or cells: HeLa (CRISPR/Cas9 HiBiT knock-in). In kind it is cell-based. The note with it: for DC50: read-out: SMARC A2 Hela HiBit DC50; for Dmax: read-out: SMARC A2 Hela HiBit Dmax (%). An outline of the steps: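 SMARCA2 degradation was measured in HeLa cells whose endogenous SMARCA2 carries a carboxy-terminal HiBiT tag introduced by CRISPR/Cas9 (Promega CS302365). Cells were maintained in DMEM with FBS and penicillin-streptomycin. SMARCA2 levels were read at the end of the experiment by Nano-Glo® HiBiT lytic luminescence (Promega N3050) and analyzed in GraphPad Prism.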
A general note: HiBiT is a short tag that completes a luciferase, so light tracks the accessible tagged protein.

The mark [3] stands for this setting: Hela SMARCA4-HiBiT cells, 24 hours treatment.
Where [4] appears, read: Hela SMARCA4-HiBiT cells, 24 hours treatment, read-out: SMARC A4 Hela HiBit Dmax.
[5] abbreviates: Hela SMARCA2-HiBiT cells, 24 hours treatment.
The mark [6] stands for this setting: Hela SMARCA4-HiBiT cells, 24 hours treatment, read-out: SMARC A4 Hela HiBit Dmax(%).

Sequence of SMARCA2 (P51531 whole entry): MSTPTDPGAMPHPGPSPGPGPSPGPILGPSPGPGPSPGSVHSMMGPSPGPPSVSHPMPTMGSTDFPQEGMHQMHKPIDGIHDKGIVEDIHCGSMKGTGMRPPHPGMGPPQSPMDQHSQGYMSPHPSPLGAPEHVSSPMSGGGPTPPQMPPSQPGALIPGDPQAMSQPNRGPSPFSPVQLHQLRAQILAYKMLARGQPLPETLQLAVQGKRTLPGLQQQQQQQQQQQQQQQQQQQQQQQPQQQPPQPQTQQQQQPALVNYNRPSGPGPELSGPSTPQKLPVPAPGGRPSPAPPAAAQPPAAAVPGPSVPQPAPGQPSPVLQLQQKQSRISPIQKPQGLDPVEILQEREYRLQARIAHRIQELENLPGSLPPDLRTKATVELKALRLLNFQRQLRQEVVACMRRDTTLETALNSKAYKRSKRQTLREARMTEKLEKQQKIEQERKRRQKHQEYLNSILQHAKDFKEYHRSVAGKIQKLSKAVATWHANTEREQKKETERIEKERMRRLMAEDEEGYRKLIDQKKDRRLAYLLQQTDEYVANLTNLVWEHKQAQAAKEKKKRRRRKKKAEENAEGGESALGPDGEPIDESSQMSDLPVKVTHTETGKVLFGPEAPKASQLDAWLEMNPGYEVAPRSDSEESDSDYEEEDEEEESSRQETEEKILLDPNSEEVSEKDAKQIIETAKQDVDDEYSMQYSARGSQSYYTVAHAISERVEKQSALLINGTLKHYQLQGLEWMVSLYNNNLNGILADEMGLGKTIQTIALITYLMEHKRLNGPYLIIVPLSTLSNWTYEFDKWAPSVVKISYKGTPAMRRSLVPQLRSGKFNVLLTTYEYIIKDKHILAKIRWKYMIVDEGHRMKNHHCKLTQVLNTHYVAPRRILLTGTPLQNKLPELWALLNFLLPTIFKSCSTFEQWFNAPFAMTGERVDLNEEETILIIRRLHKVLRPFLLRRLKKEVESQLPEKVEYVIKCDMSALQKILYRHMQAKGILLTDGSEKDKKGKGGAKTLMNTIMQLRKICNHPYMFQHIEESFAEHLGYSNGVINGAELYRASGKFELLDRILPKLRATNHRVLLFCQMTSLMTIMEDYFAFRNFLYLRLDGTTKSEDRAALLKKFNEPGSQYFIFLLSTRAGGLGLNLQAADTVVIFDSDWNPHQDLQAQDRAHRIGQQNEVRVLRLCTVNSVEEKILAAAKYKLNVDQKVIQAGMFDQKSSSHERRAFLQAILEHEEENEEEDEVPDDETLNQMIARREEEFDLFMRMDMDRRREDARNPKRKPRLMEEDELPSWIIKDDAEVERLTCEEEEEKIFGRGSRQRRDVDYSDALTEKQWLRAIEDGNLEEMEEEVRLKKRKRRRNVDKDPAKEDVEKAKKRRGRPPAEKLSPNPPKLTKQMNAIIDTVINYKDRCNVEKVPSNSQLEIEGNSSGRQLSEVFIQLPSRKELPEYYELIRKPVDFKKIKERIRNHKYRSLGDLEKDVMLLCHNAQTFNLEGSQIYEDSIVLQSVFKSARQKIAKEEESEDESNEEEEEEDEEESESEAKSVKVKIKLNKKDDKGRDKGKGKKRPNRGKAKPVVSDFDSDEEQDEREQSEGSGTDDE
Sequence of SMARCA4 (P51532 whole entry): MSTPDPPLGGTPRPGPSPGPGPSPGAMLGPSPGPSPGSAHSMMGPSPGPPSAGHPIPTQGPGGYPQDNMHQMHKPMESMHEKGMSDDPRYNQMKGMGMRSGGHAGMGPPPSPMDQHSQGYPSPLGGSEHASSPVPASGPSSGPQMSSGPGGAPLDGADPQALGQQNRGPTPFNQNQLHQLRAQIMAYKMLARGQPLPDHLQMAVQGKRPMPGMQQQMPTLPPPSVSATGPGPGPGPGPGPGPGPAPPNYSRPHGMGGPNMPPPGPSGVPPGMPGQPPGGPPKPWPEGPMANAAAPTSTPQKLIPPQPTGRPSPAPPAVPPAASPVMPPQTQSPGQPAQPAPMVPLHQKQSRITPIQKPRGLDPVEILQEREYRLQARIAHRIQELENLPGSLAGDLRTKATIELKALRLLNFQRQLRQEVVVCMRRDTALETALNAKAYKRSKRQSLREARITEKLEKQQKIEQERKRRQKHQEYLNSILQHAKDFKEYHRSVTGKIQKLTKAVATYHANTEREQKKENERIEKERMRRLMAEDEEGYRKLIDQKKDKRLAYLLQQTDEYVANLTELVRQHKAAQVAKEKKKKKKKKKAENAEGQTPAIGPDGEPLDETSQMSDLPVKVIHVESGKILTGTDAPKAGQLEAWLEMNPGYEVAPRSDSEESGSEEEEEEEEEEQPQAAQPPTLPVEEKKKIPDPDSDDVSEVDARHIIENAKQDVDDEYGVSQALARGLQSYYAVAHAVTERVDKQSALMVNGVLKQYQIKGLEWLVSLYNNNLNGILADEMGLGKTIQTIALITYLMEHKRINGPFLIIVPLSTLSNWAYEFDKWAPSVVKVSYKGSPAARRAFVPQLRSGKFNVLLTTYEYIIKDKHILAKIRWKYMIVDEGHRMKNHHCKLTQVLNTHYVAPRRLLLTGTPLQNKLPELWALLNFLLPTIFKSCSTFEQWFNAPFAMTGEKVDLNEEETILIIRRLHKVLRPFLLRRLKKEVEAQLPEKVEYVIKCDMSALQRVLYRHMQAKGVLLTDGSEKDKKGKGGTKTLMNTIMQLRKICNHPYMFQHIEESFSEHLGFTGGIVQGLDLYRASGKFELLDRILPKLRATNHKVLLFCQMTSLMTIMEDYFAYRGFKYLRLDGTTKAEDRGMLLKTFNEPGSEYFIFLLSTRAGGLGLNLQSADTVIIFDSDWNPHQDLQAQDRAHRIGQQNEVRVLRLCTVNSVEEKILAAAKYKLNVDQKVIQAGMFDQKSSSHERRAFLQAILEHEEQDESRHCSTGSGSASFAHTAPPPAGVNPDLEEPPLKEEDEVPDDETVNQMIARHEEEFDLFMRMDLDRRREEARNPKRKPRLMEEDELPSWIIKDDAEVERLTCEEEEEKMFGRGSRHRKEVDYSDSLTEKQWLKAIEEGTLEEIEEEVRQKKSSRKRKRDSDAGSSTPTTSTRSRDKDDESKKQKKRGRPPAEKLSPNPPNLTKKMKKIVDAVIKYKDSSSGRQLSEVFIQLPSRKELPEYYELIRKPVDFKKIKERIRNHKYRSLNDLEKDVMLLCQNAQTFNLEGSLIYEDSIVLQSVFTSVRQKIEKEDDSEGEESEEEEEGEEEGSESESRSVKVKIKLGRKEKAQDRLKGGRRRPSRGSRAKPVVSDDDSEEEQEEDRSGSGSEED

As for `Cc1ncsc1-c1ccc([C@H](C)NC(=O)[C@@H]2C[C@@H](O)CN2C(=O)[C@@H](n2cc([C@H]3CC[C@H](CN4CCC(c5cnc6c(c5)-n5c(nc(=O)c7c(Br)cccc75)C65CCCCC5)CC4)CC3)nn2)C(C)(C)C)cc1` [Compound A76, (2S,4R)-1-((S)-2-(4-((1r,4S)-4-((4-(4′-bromo-5′-oxo-5′H-spiro[cyclohexane-1,7′-pyrido[2′,3′: 4,5]pyrrolo[1,2-a]quinazolin]-10′-yl)piperidin-1-yl)methyl)cyclohexyl)-1H-1,2,3-triazol-1-yl)-3,3-dimethylbutanoyl)-4-hydroxy-N—((S)-1-(4-(4-methylthiazol-5-yl)phenyl)ethyl)pyrrolidine-2-carboxamide], the values for the DC50 in experiment [1] (setting [3]) and in experiment [2] (setting [5]) were > 1000 nM and < 10 nM, respectively. For the same compound, the Dmax – broadly, the largest share of the target that was removed – in experiment [1] (setting [4]) was < 50%; in experiment [2] (setting [5]) it was > 90%.
In the case of `Cc1ncsc1-c1ccc([C@H](CN2CCOCC2)NC(=O)[C@@H]2C[C@@H](O)CN2C(=O)[C@@H](NC(=O)C23CCC(CN4CCC(c5ccc6c(c5)C5(CCCCC5)c5nc(=O)c7c(Br)cccc7n5-6)CC4)(CC2)CC3)C(C)(C)C)cc1` [Compound A28, (2S,4R)-1-((S)-2-(4-((4-(4′-bromo-5′-oxo-5′H-spiro[cyclohexane-1,7′-indolo[1,2-a]quinazolin]-9′-yl)piperidin-1-yl)methyl)bicyclo[2.2.2]octane-1-carboxamido)-3,3-dimethylbutanoyl)-4-hydroxy-N—((R)-1-(4-(4-methylthiazol-5-yl)phenyl)-2-morpholinoethyl)pyrrolidine-2-carboxamide], the “SMARC A4 Hela HiBit Dmax(%)” value in experiment [1] (setting [3]) is “C (C (50-69% degradation))”. Besides, the DC50 (in general, the concentration at which degradation of the target reaches its halfway point) is 100 to 500 nM in experiment [1] and < 100 nM in experiment [2]. Further, the “SMARC A2 Hela HiBit Dmax (%)” value in experiment [2] (setting [5]) was “B (B (70-90% degradation))”.
With `Cc1ncsc1-c1ccc([C@H](C)NC(=O)[C@@H]2C[C@@H](O)CN2C(=O)[C@@H](NC(=O)C23CCC(CN4CCC(c5ccc6c(c5)-n5c(nc(=O)c7c(Br)cccc75)C65CCCCC5)CC4)(CC2)CC3)C(C)(C)C)cc1` [Compound A29], the values for the greatest degradation seen (Dmax) in experiment [1] (setting [6]) and in experiment [2] (HeLa) were < 50% and 70 to 90%, respectively. Moreover, the DC50 is > 1000 nM in experiment [1] and < 100 nM in experiment [2].
In the case of `COCCOCCOC[C@H](NC(=O)[C@@H]1C[C@@H](O)CN1C(=O)[C@@H](n1cc([C@H]2CC[C@H](CN3CCC(c4ccc5c(c4)-n4c(nc(=O)c6c(Cl)cccc64)C5(C)C)CC3)CC2)nn1)C(C)(C)C)c1ccc(-c2scnc2C)cc1` [Compound A92], the DC50 in experiment [1] (setting [3]) is > 1000 nM; in experiment [2] (setting [5]), < 10 nM. For the same compound, the Dmax is < 50% in experiment [1] (setting [4]) and 70 to 90% in experiment [2] (setting [5]).
`Cc1ncsc1-c1ccc([C@H](C)NC(=O)[C@@H]2C[C@@H](O)CN2C(=O)[C@@H](n2cc(-c3ccc(CN4CCC(c5ccc6c(c5)-n5c(nc(=O)c7c(Br)cccc75)C65CCCCC5)CC4)nc3)nn2)C(C)(C)C)cc1` [Compound A66]: in experiment [1] (setting [3]), the “SMARC A4 Hela HiBit Dmax(%)” value is “D (D (<50% degradation))”. In addition, the DC50 in experiment [1] and in experiment [2] was > 1000 nM in each case. The “SMARC A2 Hela HiBit Dmax (%)” value in experiment [2] (setting [5]) was “C (C (50-69% degradation))”.
For `Cc1ncsc1-c1ccc([C@H](C)NC(=O)[C@@H]2C[C@@H](O)CN2C(=O)[C@@H](n2cc(CCCCN3CCC(c4ccc5c(c4)-n4c(nc(=O)c6c(Br)cccc64)C54CCCCC4)CC3)nn2)C(C)(C)C)cc1` [Compound A45, (2S,4R)-1-((S)-2-(4-(4-(4-(4′-bromo-5′-oxo-5′H-spiro[cyclohexane-1,7′-indolo[1,2-a]quinazolin]-10′-yl)piperidin-1-yl)butyl)-1H-1,2,3-triazol-1-yl)-3,3-dimethylbutanoyl)-4-hydroxy-N—((S)-1-(4-(4-methylthiazol-5-yl)phenyl)ethyl)pyrrolidine-2-carboxamide], in experiment [1] (setting [3]), the “SMARC A4 Hela HiBit Dmax(%)” value is on record as “B (B (70-90% degradation))”. Also, the DC50 in experiment [1] and in experiment [2] was < 100 nM in each case. Also, the “SMARC A2 Hela HiBit Dmax (%)” value in experiment [2] (setting [5]) is on record as “A (A (>90% degradation))”.
In the case of `Cc1ncsc1-c1ccc([C@H](CN2CCOCC2)NC(=O)[C@@H]2C[C@@H](O)CN2C(=O)[C@H](C2CCCCC2)n2cc([C@H]3CC[C@H](CN4CCC(c5ccc6c(c5)-n5c(nc(=O)c7c(Cl)cccc75)C65CCCCC5)CC4)CC3)nn2)cc1` [Compound A122, (2S,4R)-1-((S)-2-(4-((1r,4S)-4-((4-(4′-chloro-5′-oxo-5′H-spiro[cyclohexane-1,7′-indolo[1,2-a]quinazolin]-10′-yl)piperidin-1-yl)methyl)cyclohexyl)-1H-1,2,3-triazol-1-yl)-2-cyclohexylacetyl)-4-hydroxy-N—((R)-1-(4-(4-methylthiazol-5-yl)phenyl)-2-morpholinoethyl)pyrrolidine-2-carboxamide], the “SMARC A4 Hela HiBit DC50(nM)” value in experiment [1] (setting [3]) is “No fit”. For the same compound, the Dmax in experiment [1] (setting [4]) is 50 to 69%; in experiment [2] (setting [5]), > 90%. In experiment [2] (setting [5]), the DC50 is < 10 nM.
Turning to `Cc1ncsc1-c1ccc([C@H](C)NC(=O)[C@@H]2C[C@@H](O)CN2C(=O)[C@@H](NC(=O)CN2CCC(c3ccc4c(c3)C3(CCCCC3)c3nc(=O)c5c(Cl)cccc5n3-4)CC2)C(C)(C)C)cc1` [Compound A5, (2S,4R)-1-((S)-2-(2-(4-(4′-chloro-5′-oxo-5′H-spiro[cyclohexane-1,7′-indolo[1,2-a]quinazolin]-9′-yl)piperidin-1-yl)acetamido)-3,3-dimethylbutanoyl)-4-hydroxy-N—((S)-1-(4-(4-methylthiazol-5-yl)phenyl)ethyl) pyrrolidine-2-carboxamide], the Dmax in experiment [1] (HeLa, read-out: SMARC A4 Hela HiBit Dmax(%)) was > 90%; in experiment [2] (HeLa), > 90%. Besides, the DC50 in experiment [1] (setting [3]) and in experiment [2] (setting [5]) was < 100 nM in each case.
Turning to `Cc1ncsc1-c1ccc([C@H](C)NC(=O)[C@@H]2C[C@@H](O)CN2C(=O)[C@@H](NC(=O)C23CCC(CN4CCC(c5ccc6c(c5)-n5c(nc(=O)c7c(Br)cccc75)C65CCCCC5)CC4)(CC2)C3)C(C)(C)C)cc1` [Compound A23, (2S,4R)-1-((S)-2-(4-((4-(4′-bromo-5′-oxo-5′H-spiro[cyclohexane-1,7′-indolo[1,2-a]quinazolin]-10′-yl)piperidin-1-yl)methyl)bicyclo[2.2.1]heptane-1-carboxamido)-3,3-dimethylbutanoyl)-4-hydroxy-N—((S)-1-(4-(4-methylthiazol-5-yl)phenyl)ethyl)pyrrolidine-2-carboxamide], the Dmax is 70 to 90% in experiment [1] (setting [6]) and > 90% in experiment [2] (HeLa). Besides, the DC50 in experiment [1] is 100 to 500 nM; in experiment [2] it was < 100 nM.
With `Cc1ncsc1-c1ccc([C@H](CCCCCN2CCC(c3ccc4c(c3)C3(CCCCC3)c3nc(=O)c5c(Br)cccc5n3-4)CC2)NC(=O)[C@@H]2C[C@@H](O)CN2C(=O)[C@@H](NC(=O)C2(CN(C)C)CC2)C(C)(C)C)cc1` [Compound A18, (2S,4R)—N—((S)-6-(4-(4′-bromo-5′-oxo-5′H-spiro[cyclohexane-1,7′-indolo[1,2-a]quinazolin]-9′-yl)piperidin-1-yl)-1-(4-(4-methylthiazol-5-yl)phenyl)hexyl)-1-((S)-2-(1-((dimethylamino)methyl)cyclopropane-1-carboxamido)-3,3-dimethylbutanoyl)-4-hydroxypyrrolidine-2-carboxamide], the “SMARC A4 Hela HiBit Dmax(%)” value in experiment [1] (setting [3]) is on record as “B (B (70-90% degradation))”. The DC50 in experiment [1] and in experiment [2] was < 100 nM in each case. The “SMARC A2 Hela HiBit Dmax (%)” value in experiment [2] (setting [5]) is recorded as “B (B (70-90% degradation))”.
As to `Cc1ncsc1-c1ccc([C@H](C)NC(=O)[C@@H]2C[C@@H](O)CN2C(=O)[C@@H](n2cc(CCCCCN3CCC(c4ccc5c(c4)-n4c(nc(=O)c6c(Br)cccc64)C54CCCCC4)CC3)nn2)C(C)(C)C)cc1` [Compound A46, (2S,4R)-1-((S)-2-(4-(5-(4-(4′-bromo-5′-oxo-5′H-spiro[cyclohexane-1,7′-indolo[1,2-a]quinazolin]-10′-yl)piperidin-1-yl)pentyl)-1H-1,2,3-triazol-1-yl)-3,3-dimethylbutanoyl)-4-hydroxy-N—((S)-1-(4-(4-methylthiazol-5-yl)phenyl)ethyl)pyrrolidine-2-carboxamide], the “SMARC A4 Hela HiBit Dmax(%)” value in experiment [1] (setting [3]) was “B (B (70-90% degradation))”. Further, the DC50 in experiment [1] and in experiment [2] was < 100 nM in each case. In experiment [2] (setting [5]), the “SMARC A2 Hela HiBit Dmax (%)” value is listed as “A (A (>90% degradation))”.
